From PubChem BioAssay AID256 (DTP/NCI, 2004)
Values joined by “and” are separate entries in the source; they are usually repeats but may differ in a detail not shown here. Identical values can stand only once. Toxic doses and inconclusive results are not listed. How the source made its calls: active means survival T/C of 150% or more; inactive means T/C below 125% in these data. Non-standard residues stand in square brackets, D forms with d. Residues, ends and D or L forms follow the SMILES beside them. ξ: configuration not given here. *: point of attachment. ξV = CC(C)C(N)C(=O)O; ClAc = O=C(CCl)*

Test system: CD2F1 mice, L1210 leukemia ip, survival T/C
Test: NCI In Vivo Anticancer Drug Screen. Data for tumor model L1210 Leukemia (intraperitoneal) in CD2F1 (CDF1) mice
Conditions: higher = longer survival
Summary of the method: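 Ratio T/C, where T is the treated-group value and C the vehicle-dosed control value, from mice implanted with a transplantable tumor.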

[1] = endpoint: mean survival time, dose: 100.0 mg/kg/injection, schedule: Q04DX003 (ip), vehicle: other
[2] = endpoint: mean survival time, dose: 200.0 mg/kg/injection, schedule: Q04DX003 (ip), vehicle: other
[3] = endpoint: mean survival time, dose: 400.0 mg/kg/injection, schedule: Q04DX003 (ip), vehicle: other
[4] = endpoint: mean survival time, dose: 50.0 mg/kg/injection, schedule: Q04DX003 (ip), vehicle: saline
[5] = endpoint: mean survival time, dose: 100.0 mg/kg/injection, schedule: Q04DX003 (ip), vehicle: saline
[6] = endpoint: mean survival time, dose: 200.0 mg/kg/injection, schedule: Q04DX003 (ip), vehicle: saline
[7] = endpoint: mean survival time, dose: 100.0 mg/kg/injection, schedule: Q01DX001 (ip), vehicle: saline with Tween-80
[8] = endpoint: mean survival time, dose: 200.0 mg/kg/injection, schedule: Q01DX001 (ip), vehicle: saline with Tween-80
[9] = endpoint: mean survival time, dose: 100.0 mg/kg/injection, schedule: Q04DX003 (ip), vehicle: saline with Tween-80
[10] = endpoint: mean survival time, dose: 200.0 mg/kg/injection, schedule: Q04DX003 (ip), vehicle: saline with Tween-80
[11] = endpoint: mean survival time, dose: 400.0 mg/kg/injection, schedule: Q04DX003 (ip), vehicle: saline with Tween-80
[12] = endpoint: mean survival time, dose: 25.0 mg/kg/injection, schedule: Q01DX009 (ip), vehicle: saline with Tween-80
[13] = endpoint: mean survival time, dose: 50.0 mg/kg/injection, schedule: Q01DX009 (ip), vehicle: saline with Tween-80
[14] = endpoint: mean survival time, dose: 100.0 mg/kg/injection, schedule: Q01DX009 (ip), vehicle: saline with Tween-80
[15] = endpoint: mean survival time, dose: 200.0 mg/kg/injection, schedule: Q01DX009 (ip), vehicle: saline with Tween-80
[16] = endpoint: mean survival time, dose: 400.0 mg/kg/injection, schedule: Q01DX009 (ip), vehicle: saline with Tween-80
[17] = endpoint: mean survival time, dose: 25.0 mg/kg/injection, schedule: Q04DX003 (ip), vehicle: saline with Tween-80
[18] = endpoint: mean survival time, dose: 50.0 mg/kg/injection, schedule: Q04DX003 (ip), vehicle: saline with Tween-80

Measured: T/C

CC(C)(O)CCNc1ncnc2c1ncn2C1OC(CO)C(O)C1O (stereo not drawn)
inactive: endpoint: mean survival time, dose: 12.5 mg/kg/injection, schedule: Q01DX005 (ip), vehicle: water 101 % of control | endpoint: mean survival time, dose: 25.0 mg/kg/injection, schedule: Q01DX005 (ip), vehicle: water 95 % of control and 103 % of control | endpoint: mean survival time, dose: 50.0 mg/kg/injection, schedule: Q01DX005 (ip), vehicle: water 124 % of control and 103 % of control | endpoint: mean survival time, dose: 100.0 mg/kg/injection, schedule: Q01DX005 (ip), vehicle: water 108 % of control

CCCCCCCCC1SC1CCCCCCCC(=O)OCCN(C)C(=O)CCCCCCCC1SC1CCCCCCCC (stereo not drawn)
inactive: [1] 100 % of control | [2] 92 % of control | [3] 90 % of control

C[N+]12CCN(CC1)CC2.[Cl][Pt]([Cl])[Cl]
inactive: endpoint: mean survival time, dose: 12.5 mg/kg/injection, schedule: Q04DX003 (ip), vehicle: saline 101 % of control | endpoint: mean survival time, dose: 25.0 mg/kg/injection, schedule: Q04DX003 (ip), vehicle: saline 98 % of control | [4] 106 % of control | [5] 113 % of control | [6] 104 % of control

O=[N+]([O-])c1ccc(/C=C/C=C/C2(CCl)OCCO2)cc1
inactive: endpoint: mean survival time, dose: 100.0 mg/kg/injection, schedule: Q01DX001 (ip), vehicle: Klucel (hydroxypropylcellulose) (HPC) 100 % of control | endpoint: mean survival time, dose: 200.0 mg/kg/injection, schedule: Q01DX001 (ip), vehicle: Klucel (hydroxypropylcellulose) (HPC) 112 % of control | endpoint: mean survival time, dose: 400.0 mg/kg/injection, schedule: Q01DX001 (ip), vehicle: Klucel (hydroxypropylcellulose) (HPC) 100 % of control

Cc1cc(Cc2ccccc2)c(O)c(Cc2ccccc2)c1
inactive: [1] 96 % of control | [2] 102 % of control | [3] 94 % of control

O=C(COc1ccc(Cl)c(Cl)c1)NCCc1cc[n+](Cc2ccc(Cl)cc2S(=O)(=O)F)cc1
inactive: [7] 89 % of control | [8] 89 % of control

COc1c(OC(C)=O)ccc(/C=C2\COC(C)=N2)c1[N+](=O)[O-]
inactive: [9] 96 % of control | [10] 102 % of control | [11] 92 % of control

O=Cc1cc(C(=O)O)ccc1O
inactive: endpoint: mean survival time, dose: 100.0 mg/kg/injection, schedule: Q01DX001 (ip), vehicle: saline 100 % of control | endpoint: mean survival time, dose: 200.0 mg/kg/injection, schedule: Q01DX001 (ip), vehicle: saline 97 % of control | endpoint: mean survival time, dose: 400.0 mg/kg/injection, schedule: Q01DX001 (ip), vehicle: saline 94 % of control

Cc1ccccc1C1(O)CCCCC1
inactive: [12] 114 % of control | [13] 98 % of control and 108 % of control | [14] 90 % of control | [9] 93 % of control | [15] 90 % of control | [10] 94 % of control

CCCCCCCCCCCCC/C=N/NC(=O)c1ccc[n+](C)c1
inactive: [7] 93 % of control | [8] 98 % of control

Cc1cc(C)cc(NC(=O)c2ccccc2N)c1
inactive: [14] 107 % of control | [15] 95 % of control | [16] 107 % of control

CC(=O)N(C(C)=O)c1ncc2ccccc2c1-c1ccc(N)cc1
inactive: [17] 92 % of control | [18] 89 % of control | [9] 94 % of control

CC(=O)CC(C)=O.CC(=O)CC(C)=O.O=N[O-].O=N[O-].[Co]
inactive: endpoint: median survival time, dose: 12.5 mg/kg/injection, schedule: Q01DX009 (ip), vehicle: saline with Tween-80 106 % of control and 108 % of control and 111 % of control | endpoint: median survival time, dose: 25.0 mg/kg/injection, schedule: Q01DX009 (ip), vehicle: saline with Tween-80 118 % of control and 111 % of control and 112 % of control | endpoint: median survival time, dose: 50.0 mg/kg/injection, schedule: Q01DX009 (ip), vehicle: saline with Tween-80 116 % of control and 118 % of control | endpoint: median survival time, dose: 100.0 mg/kg/injection, schedule: Q01DX009 (ip), vehicle: saline with Tween-80 90 % of control

O=C1C2CCN(CC2)C1COc1cccc2ccccc12 (stereo not drawn)
inactive: [7] 106 % of control | [8] 95 % of control | endpoint: mean survival time, dose: 400.0 mg/kg/injection, schedule: Q01DX001 (ip), vehicle: saline with Tween-80 102 % of control

CC12CCC(O1)C1C(=O)NC(=O)C12 (stereo not drawn)
inactive: [9] 94 % of control | [10] 89 % of control | [11] 98 % of control

N=C(N)c1ccc(OCCCOc2ccc(NC(=O)Nc3ccc(S(=O)(=O)F)cc3)cc2)cc1
inactive: endpoint: mean survival time, dose: 50.0 mg/kg/injection, schedule: Q01DX001 (ip), vehicle: saline with Tween-80 95 % of control | [7] 89 % of control | [8] 93 % of control

Cc1nc2[nH]c(=O)[nH]c(=O)c2[nH]1
inactive: [12] 94 % of control | [13] 96 % of control | [14] 92 % of control

CC(=O)NC1C(O)C(NC(C)=O)C(OC(C)=O)C(OC(C)=O)C1OC(C)=O (stereo not drawn)
inactive: [14] 95 % of control | [15] 103 % of control | [16] 103 % of control

Cc1ccc(S(=O)(=O)OC2(c3ccc(C(F)(F)F)cc3)C3CCC2CC3)cc1 (stereo not drawn)
inactive: endpoint: mean survival time, dose: 12.5 mg/kg/injection, schedule: Q04DX002 (ip), vehicle: saline with Tween-80 104 % of control | endpoint: mean survival time, dose: 25.0 mg/kg/injection, schedule: Q04DX002 (ip), vehicle: saline with Tween-80 101 % of control | endpoint: mean survival time, dose: 50.0 mg/kg/injection, schedule: Q04DX002 (ip), vehicle: saline with Tween-80 104 % of control

CCC1(C)CC(=O)NC(=O)C1
inactive: endpoint: mean survival time, dose: 2.5 mg/kg/injection, schedule: Q01DX009 (ip), vehicle: saline with Tween-80 97 % of control | endpoint: mean survival time, dose: 5.0 mg/kg/injection, schedule: Q01DX009 (ip), vehicle: saline with Tween-80 100 % of control | endpoint: mean survival time, dose: 10.0 mg/kg/injection, schedule: Q01DX009 (ip), vehicle: saline with Tween-80 94 % of control

CC(=O)Nc1nnc(SCc2ccccc2)s1
inactive: [14] 100 % of control | [9] 92 % of control | [15] 96 % of control | [10] 89 % of control | [16] 100 % of control | [11] 89 % of control

CCCCN(CCCC)c1cc(C(C)=O)c2ccccc2n1
inactive: [4] 102 % of control | [5] 102 % of control | [6] 102 % of control

CC(=O)c1c(C(=O)O)c(=O)oc2cc(O)ccc12
inactive: endpoint: mean survival time, dose: 75.0 mg/kg/injection, schedule: Q01DX001 (ip), vehicle: saline 98 % of control | endpoint: mean survival time, dose: 150.0 mg/kg/injection, schedule: Q01DX001 (ip), vehicle: saline 98 % of control | endpoint: mean survival time, dose: 300.0 mg/kg/injection, schedule: Q01DX001 (ip), vehicle: saline 98 % of control

CCc1nc2cc(C)c(C)cc2[nH]1
inactive: endpoint: mean survival time, dose: 12.5 mg/kg/injection, schedule: Q01DX009 (ip), vehicle: saline with Tween-80 97 % of control | [12] 100 % of control | [17] 89 % of control | [13] 95 % of control | [18] 89 % of control | [9] 93 % of control

O=c1c([N+](=O)[O-])c[nH]c2ccccc12
inactive: endpoint: mean survival time, dose: 100.0 mg/kg/injection, schedule: Q04DX002 (ip), vehicle: saline with Tween-80 95 % of control | endpoint: mean survival time, dose: 200.0 mg/kg/injection, schedule: Q04DX002 (ip), vehicle: saline with Tween-80 95 % of control | endpoint: mean survival time, dose: 400.0 mg/kg/injection, schedule: Q04DX002 (ip), vehicle: saline with Tween-80 103 % of control

CC(C)C(NC(=O)CNC(=O)CCl)C(=O)O (stereo not drawn) (ClAc-Gly-[ξV]-OH)
inactive: [12] 92 % of control | [17] 96 % of control | [13] 97 % of control | [18] 100 % of control | [14] 97 % of control | [9] 100 % of control

CC(C)(C)N1CC2C(c3ccccc3)NNC2(O)C1=O (stereo not drawn)
inactive: [14] 109 % of control | [15] 113 % of control | [16] 105 % of control

N#CC1C(=O)c2ccccc2C1=O
inactive: [17] 91 % of control | [18] 93 % of control | [9] 93 % of control
